Consider 70 compounds from PMC7822874, “Chemoprotective antimalarials identified through quantitative high-throughput screening of Plasmodium blood and liver stage parasites” (Scientific Reports, 2021).

In the first assay the test system is Plasmodium falciparum Dd2 asexual blood stage parasites. Put plainly: microbe, parasite or virus in culture. The following applies: Plasmodium falciparum, DD2, Erythrocyte, 72 h. Also on record: species or system Plasmodium falciparum Dd2 in human erythrocytes; single determination (one 11-point concentration-response curve).
In turn, `O=C(c1cccs1)c1cn(CCOc2ccc(Cl)cc2)c2ccccc12` [NCGC00101601-01] yielded an AC50 of 5.96 µM.

The same assay, now with this note: Plasmodium falciparum, DD2, Erythrocyte, 72 h; read-out: AC50.
Take `C#Cc1ccc(C(=O)Nc2ccc(N3CCC(C)CC3)c(C(N)=O)c2)cc1` [MLS000764680-01]: the AC50 was determined as 6.68 µM.
Still for that read-out and setting: for `CC(C)c1ccc(CC(=O)N2CCCc3ncc(C(=O)NCCc4c[nH]c5ccccc45)cc32)cc1` [NCGC00420032-01] the value was 15 µM.
Same read-out and setting: for `CCOc1ccc(-n2c(SCC(N)=O)nc3sc4c(c3c2=O)CCN(C)C4)cc1` [MLS000332254-01] the value was 15 µM; for `O=C1CC2(CCN(Cc3cccs3)CC2)Oc2cc(Cl)ccc21` [NCGC00476854-01], 5.31 µM.
Still for that read-out and setting: for `OCC[n+]1ccc(/C=C/c2c[nH]c3ccccc23)cc1` [MLS000585200-01] the value was 2.99 µM.
`CC1=C[C@@H](CN2CCC(C)CC2)[C@H](C(C)C)C[C@H]1Cc1nnc(-c2cccnc2)o1` [NCGC00421463-01]: the AC50 came to 15.3 µM.
On the same count and under the same terms, then `N=c1c2c(n(Cc3ccc(F)cc3)c3c1CCC3)CCC2` [MLS000107591-01], with 3.35 µM.
In the case of `COc1ccc(-n2nc3ccc(NC(=O)c4ccc(-c5cc(Cl)ccc5Cl)o4)cc3n2)cc1` [NCGC00098498-01], the AC50 is 4.22 µM.
On the same count and under the same terms, for `CCCCn1c(N)c(N(CC(C)C)C(=O)c2cc(-c3ccc(OC)c(OC)c3)nc3ccccc23)c(=O)[nH]c1=O` [MLS001157051-01] the value was 11.9 µM.
Turning to `COc1ccc2cc1Nc1ccc(cc1)C[C@H](NCc1ccc3c(c1)CCO3)C(=O)N(C)[C@H](C(=O)NCCC(C)C)C2` [NCGC00410296-01], the AC50 came to 3.35 µM.
With `COc1cccc(CN2CCCC(NCc3cc(C)ccc3-n3cccn3)C2)c1` (stereo not shown) [NCGC00427605-01], the AC50 amounted to 2.99 µM.
The same measure, in the same setting: for `Cc1noc(C)c1-c1cc2c(cc(C)n2CCN(C)C)c(Nc2ccn(C)n2)n1` [NCGC00417199-01] the value was 13.7 µM; for `O=C(CNC1CC1)Nc1cc(C(F)(F)F)ccc1Cl` [MLS001010951-01], 15 µM.
Take `C=C[C@]1(C)C[C@@H](OC(=O)CSC(C)(C)CNC(=O)[C@H](N)C(C)C)[C@]2(C)[C@H](C)CC[C@]3(CCC(=O)[C@H]32)[C@@H](C)[C@@H]1O` [NCGC00167968-01]: the AC50 was determined as 8.41 µM.
Still for that read-out and setting: for `CCc1cc(=O)oc2cc(C)cc(OCC(=O)C(C)(C)C)c12` [MLS000666007-01] the value was 11.9 µM; for `COc1ccc(C)cc1-n1c(-c2ccc(Cl)cc2)cc2c1CC(C)(C)CC2=O` [NCGC00110344-01], 2.99 µM; for `COc1ccccc1C(=O)N1CCC2(CC1)c1nccn1-c1ccccc1CN2CC(C)C` [NCGC00442752-01], 11.9 µM.
Still for that read-out and setting: then `CCC(C)N(CCNC(=O)c1ccc2c(c1)NC(=O)c1ccccc1S2)C1CCCCC1` (stereo not shown) [MLS001110969-01], with 13.3 µM; and `CC(=O)C1=C(c2ccccc2)N(C(C)=O)n2c(nnc2C2CCCCC2)S1` [NCGC00137174-01], with 4.22 µM; and `COc1ccc2c(c1)c(CN1CCCCCCN(C)C(=O)[C@@H]3CCC[C@@H]31)cn2C` [NCGC00465190-01], with 15 µM.
On the same count and under the same terms, then `Nc1nonc1-n1nnc(C(=O)N/N=C/c2ccc(F)cc2)c1-c1ccc2c(c1)OCO2` [MLS001142639-01], with 0.335 µM; and `COc1ccc(C2c3ccc(O)cc3Oc3ncn4nc(-c5ccncc5)nc4c32)cc1OC` (stereo not shown) [MLS000778948-01], with 15 µM.
Turning to `COc1ccccc1-c1ccc2ncc(Nc3ccc4[nH]ccc4c3)n2n1` [NCGC00412550-01], the half-maximal activity concentration (AC50) came to 4.33 µM.
In the case of `CCCN(CCC)CC(O)Cn1cc(/C=C/C(=O)c2ccc(C)cc2)c2ccccc21` (stereo not shown) [NCGC00114909-01], the AC50 came out at 4.73 µM.
On to `COc1ccccc1-c1nnc2n1C(C(=O)NCCc1ccc(Cl)cc1)CC2` (stereo not shown) [NCGC00375512-01], for which the AC50 is 3.35 µM.
Still for that read-out and setting: then `O=C1N=C(NC2CCCC2)C2(CCN(Cc3ccc(F)cc3)C2)N1c1cc(F)cc(F)c1` (stereo not shown) [NCGC00374305-01], with 10.6 µM; and `Cc1cc([N+](=O)[O-])ccc1NC(=O)COc1nsnc1N1CCOCC1` [MLS000950344-01], with 6.68 µM.
The same measure, in the same setting: for `CCC1=Nc2cc(C(=O)NCc3ccco3)ccc2Sc2ccc(C)cc21` [MLS000583106-01] the value was 8.41 µM; for `COc1cc2nc(SCc3ccc(F)cc3)n3nc(CCn4c(C)nc5ccccc54)nc3c2cc1OC` [NCGC00108638-01], 2.99 µM.
Same read-out and setting: for `COc1ccc(-c2nnc(C[C@@H]3C[C@@H](C(C)C)[C@H](CN4CCC(O)CC4)C=C3C)o2)cc1` [NCGC00394772-01] the value was 9.44 µM; for `Cc1cccc(N2CCN(c3cccc(C)c3)C2c2cccnc2)c1` [MLS000105583-01], 5.96 µM.
For `CCC(CC)c1cc([C@H]2CN3CC[C@H]2C[C@@H]3CNC(=O)NCc2ccccc2)nc(-c2ccncc2)n1` [NCGC00400244-01], the AC50 amounted to 4.22 µM.
On the same count and under the same terms, for `COc1ccccc1Cc1nc2ccccc2nc1SCC(=O)NCc1ccccc1Cl` [NCGC00133705-01] the value was 2.11 µM; for `O=C(Nc1ccccc1C(F)(F)F)c1cc(-c2ccccc2O)on1` [MLS000087293-01], 2.99 µM; for `CCc1ccc(Oc2c(C(F)(F)F)oc3c(CN4CCN(C)CC4)c(O)ccc3c2=O)cc1` [NCGC00101488-01], 0.75 µM.
On the same count and under the same terms, for `CCN(CC)c1ccc2oc(=O)c(C)nc2c1` [MLS000062529-01] the value was 6.68 µM; for `COc1cccc(CN2CCCN(Cc3ccncc3)C(c3ccccc3)CC(=O)NCC2)c1` (stereo not shown) [NCGC00467185-01], 7.5 µM; for `O=C(NCCCN1CCc2ccccc2C1)C1Cn2cccc2C(=O)N1Cc1ccccc1` (stereo not shown) [NCGC00456658-01], 9.44 µM.
The same measure, in the same setting: then `CCc1ccc(Oc2c(C(F)(F)F)oc3c(CN4CCCC(C)C4)c(O)ccc3c2=O)cc1` (stereo not shown) [NCGC00101514-01], with 1.33 µM; and `CCOc1ccc(-c2cc3nc(C4CCN(C(=O)OC(C)(C)C)CC4)c(C(=O)Nc4ccc(C(=O)OC)cc4)cn3n2)cc1` [NCGC00110849-01], with 4.73 µM; and `Cc1sc2c(c1C)c(=O)n(-c1cccc(C(F)(F)F)c1)c(=O)n2Cc1ccc(F)cc1` [NCGC00106130-01], with 2.11 µM.
As to `Cc1cc(C)c(CNC(=O)c2cc(-c3cccnc3)cc3c2OCCN3C(C)C)c(=O)[nH]1` [NCGC00416981-01], the AC50 is 19.3 µM.
For the compound `COc1ccc2cc1Nc1ccc(cc1)C[C@H](NC(=O)c1cccnc1)C(=O)N(C)[C@@H](C(=O)NCCOc1ccccc1)C2` [NCGC00410281-01], the concentration at half-maximal activity (AC50) is 4.22 µM.
On to `COc1ccc(NC(=O)c2ccc(-c3nnc4ccc(NC(=O)C5CC5)cn34)cc2)cc1` [NCGC00429845-01], for which the AC50 was 2.66 µM.
Same read-out and setting: for `COc1cccc(CC(=O)N2CCCC(CN3CCCC3)CC2)c1` (stereo not shown) [NCGC00456752-01] the value was 15 µM.
Same read-out and setting: then `COCC1CN(Cc2cccc(C(F)(F)F)c2)CC12CCNCC2` (stereo not shown) [NCGC00461834-01], with 7.5 µM; and `CN1CCN(Cc2ccccc2Oc2ccc(C(F)(F)F)cn2)CC1` [NCGC00433787-01], with 0.531 µM.
The same measure, in the same setting: then `Oc1ccc(Cl)cc1CN1CCN(Cc2ccccc2)CC1` [MLS000530315-01], with 0.944 µM; and `COc1ccc(CC(=O)NCc2ccccn2)cc1OC` [MLS000039135-01], with 7.5 µM.
With `O=C(NCC1CCCCC1)C12CN(Cc3ccccc3)CC1C(c1cccc([N+](=O)[O-])c1)=NO2` (stereo not shown) [MLS000561441-01], the AC50 was determined as 6.68 µM.
Still for that read-out and setting: then `CC[C@H]1C[N@@]2CC[C@H]1C[C@@H]2CNCc1ccc(SC)cc1` [NCGC00392466-01], with 4.33 µM; and `O=C(c1cccc(Cl)c1)N1CCC(c2nc(O)c3nnn(Cc4ccc(F)cc4F)c3n2)CC1` [NCGC00116055-01], with 5.96 µM; and `CC12CC3CC(C)(C1)CC(Nc1nc(N4CCOCC4)nc4ccccc14)(C3)C2` [MLS000332322-01], with 9.44 µM.
With `CC(C)CN(CCNC(=O)c1cc(-c2ccc(Cl)s2)nc2ccccc12)CC(C)C` [NCGC00104475-01], the half-maximal activity concentration (AC50) came to 7.5 µM.
Same read-out and setting: for `CCOc1ccc(NC(=O)c2ccc(-c3nnc4ccc(NC(=O)C5CC5)cn34)cc2)cc1` [NCGC00429851-01] the value was 2.99 µM.
Still for that read-out and setting: then `Cc1cccc2cc(CN(Cc3ccco3)C(c3nnnn3CCc3ccccc3)C(C)C)c(O)nc12` (stereo not shown) [MLS000072528-01], with 10.6 µM; and `O=C(Nc1ccccc1)[C@H]1O[C@H](CCN2CCN(c3ccc(F)cc3)CC2)CC[C@@H]1O` [NCGC00391966-01], with 10.9 µM; and `Cc1sc2[nH]c(-c3ccccn3)nc(=O)c2c1-c1ccccc1` [MLS000760132-01], with 13.3 µM.
Same read-out and setting: for `CC(C)(C)c1ccc(C(=O)N2CCCC(c3nc(O)c4nnn(Cc5cccc(F)c5)c4n3)C2)cc1` (stereo not shown) [NCGC00116087-01] the value was 16.8 µM.
Turning to `COc1ccc(NC(=O)Cc2c[nH]c3ncc(-c4cnn(C)c4)cc23)cn1` [NCGC00412250-01], the AC50 was found to be 12.2 µM.
Still for that read-out and setting: then `O=C(NC1=C(Nc2ccc(Cl)cc2)C(=O)c2ccccc2C1=O)c1ccccc1` [MLS000375030-01], with 0.473 µM.
Same read-out and setting: for `CCn1c(=O)c(=O)n(CC)c2cc(N3CCCCC3)c(NC(=O)c3ccc(Cl)cc3)cc21` [NCGC00107440-01] the value was 7.5 µM; for `CC(C)(Oc1nn(CC2CC2)c2ccc(CN3CCCC3)cc12)C(N)=O` [NCGC00419502-01], 13.7 µM.
Same read-out and setting: then `COc1ccc(-c2n[nH]c3ncc(-c4ccc([S+](C)(=O)[O-])cc4)nc23)c(C)c1` [NCGC00419180-01], with 15.3 µM; and `COc1cc(Br)c(C2CC(=O)Nc3cc4c(cc32)OCCO4)cc1OC` (stereo not shown) [NCGC00107079-01], with 2.37 µM.
On to `COc1ccc(-c2cc(C[C@@H]3CC[C@H](O)[C@@H](CNCc4ccccc4OC)O3)no2)cc1` [NCGC00421057-01], for which the concentration at half-maximal activity (AC50) stood at 3.44 µM.
Still for that read-out and setting: for `CNC(=O)c1cc(-c2ccnc(N3CCOCC3)c2)cc2c1OCCN2Cc1cccnc1` [NCGC00417111-01] the value was 8.41 µM.
Still for that read-out and setting: for `Cc1ccc(-c2noc(-c3ccccc3NC(=O)C3CC(=O)N(c4ccc(C)cc4)C3)n2)cc1` (stereo not shown) [NCGC00119552-01] the value was 4.22 µM.
On the same count and under the same terms, for `CCOC(=O)c1cc2c(=O)n3ccccc3nc2n(CC(C)C)/c1=N\C(=O)COc1ccc(Cl)cc1` [NCGC00104075-01] the value was 10.6 µM.
